Key:
Type in all cases: in vivo
[1] = tested on: tomato plants (cv. Supersweet 100); assay: Adenosine by irrigation: vegetative and reproductive growth of tomato plants; settings: irrigation daily
Description: This example describes the increase in fruit production by tomato plants (cv. Supersweet 100), achieved via application of adenosine by irrigation. Adenosine (9-beta-D-adenosine) obtained from Sigma Chemical Co. (Catalog No. A9251) was applied in a sufficient amount of distilled water to move the material into the root zone of ‘Supersweet 100’ tomato plants. Plants receiving treatments 2 and 3 were treated once every 10 days. Plants receiving treatments 4, 5, 6, and 7 were treated daily. The total amount of cytokinin or adenosine received by plants in each treatment by the end of experiment (75 days after planting) is given in parenthesis in the Table 1-1 below. The IPA concentration of the vermicompost tea was determined by radioimmunoassay.

[2] = tested on: 'Fina Sodea' Clementine mandarin trees; assay: Adenosine by foliar spray (canopy application): fruit number, yield and value of mandarin trees
Description: This example describes the increase in the number and yield of commercially valuable fruit of Clementine mandarin trees achieved by canopy application of adenosine. Adenosine (9-beta-D-adenosine) obtained from Sigma Chemical Co. (Catalog No. A9251) was applied (25 mg/L in 250 gallons of water per acre; 23.66 g/acre) with a 400 psi handgun sprayer one time at maximum peel thickness, which marks the end of the cell division stage of citrus fruit development, to ‘Fina Sodea’ Clementine mandarin trees.

[3] = tested on: 'Hass' avocado trees bearing an on-crop; assay: Trunk injection: spring bloom (bud break) of on-crop avocado trees; settings: for Floral (with fruit), No. of shoots per 100 nodes / Floral (w/o fruit), No. of shoots per 100 nodes / Determinate Floral, No. of shoots per 100 nodes / Indeterminate Floral, No. of shoots per 100 nodes / Floral, No. of shoots per 100 nodes: 1 g/tree trunk injection in Jan; for Floral (with fruit), No. of shoots per 100 nodes: branches with fruit; for Floral (w/o fruit), No. of shoots per 100 nodes: branches without fruit; for Determinate Floral, No. of shoots per 100 nodes / Indeterminate Floral, No. of shoots per 100 nodes / Floral, No. of shoots per 100 nodes: counted at spring bloom; for Floral, No. of shoots per 100 nodes: total floral shoots
Description: This example describes the use of adenosine to increase spring bud break of ‘Hass’ avocado trees to increase floral intensity and avocado production. Increased bud break was achieved via trunk injection of adenosine (9-beta-D-adenosine) obtained from Sigma Chemical Co. (Catalog No. A9251), alone or with a plant growth regulator. The following treatments were injected (1 g/tree) in mid-January into the trunk of on-crop ‘Hass’ avocado trees in a commercial orchard in Irvine, Calif.: (1) adenosine (Sigma); (2) 6-BA (Sigma); (3) GA3 (ProGibb 40%, Valent BioSciences Corp.); (4) TIBA (Sigma), and (5) TIBA plus adenosine. Each material was supplied at the rate of 1 g per tree dissolved in 50 to 60 ml distilled water using two plastic syringes per tree. There were five individual tree replicates per treatment, including (6) untreated on-crop control trees. For each tree, branches (12 inches long), 1 with fruit and 1 branch without fruit in each of the four tree quadrants, were tagged.

SMILES	# Fruit, average value per plant ([1]; total 0.35 μg by 75 days)	# Fruiting shoots, average value per plant ([1]; total 0.35 μg by 75 days)	# Leaves, average value per plant ([1]; total 0.35 μg by 75 days)	# Veg. shoots, average value per plant ([1]; total 0.35 μg by 75 days)	Fruit diameter ([1]; total 0.35 μg by 75 days)	Main Shoot (mm), average value per plant ([1]; total 0.35 μg by 75 days)	Tap Root (mm), average value per plant ([1]; total 0.35 μg by 75 days)	Floral (with fruit), No. of shoots per 100 nodes [3]	Floral (w/o fruit), No. of shoots per 100 nodes [3]	Determinate Floral, No. of shoots per 100 nodes [3]	Indeterminate Floral, No. of shoots per 100 nodes [3]	Floral, No. of shoots per 100 nodes [3]	also measured
Nc1ncnc2c1ncn2[C@@H]1O[C@H](CO)[C@@H](O)[C@H]1O [Adenosine, 9-beta-D-adenosine]	15 a	17.60 a	111 a	38.00 a	24.13 a mm	74.00 mm	28.00 mm	8 abc shoots per 100 nodes	10 shoots per 100 nodes	3 ab shoots per 100 nodes	7 shoots per 100 nodes	10 ab shoots per 100 nodes	effect on length of the main shoot or the tap root ([1]; total 0.35 μg by 75 days): did not significantly alter; more leaves than untreated control plants ([1]; total 0.35 μg by 75 days): 2.85 fold; net increase in the number of fruit per plant over the untreated control ([1]; total 0.35 μg by 75 days): 87.5%; increase of average size of individual tomato fruit over untreated control ([1]; total 0.35 μg by 75 days, transverse diameter): 61%; Total kg/tree, Medium ([2]; 25 mg/L once at maximum peel thickness, 3-year cumulative yield, diameter 50.81-57.15 mm): 37.00 kg/tree; net increase in total fruit number ([2]; adenosine applied at maximum peel thickness, numerical (non-significant)): 12,460 fruit/200 trees/acre/3 years; effect on fruit quality ([2]; any year of the 3-year study): did not have a negative effect; juice acid of fruit from treated trees ([2]; year three of the study, P=0.0163): significantly reduced; total soluble solids to acid ratio of the juice ([2]; year three of the study, P=0.0570): higher; number of floral shoots compared to the untreated on-crop control trees ([3]; single trunk injection in January): not significantly different
C=C1C[C@]23C[C@@]1(O)CC[C@H]2[C@@]12C=C[C@H](O)[C@@](C)(C(=O)O1)[C@H]2[C@@H]3C(=O)O [GA3, gibberrillic acid]								6 bc shoots per 100 nodes	8 shoots per 100 nodes	2 b shoots per 100 nodes	6 shoots per 100 nodes	7 b shoots per 100 nodes	
CC(C)=CCNc1ncnc2nc[nH]c12 [IPA, isopentenyladenine]	10 bc	11.60 cd	87 c	30.80 c	19.92 c mm	81.00 mm	20.25 mm						# Fruit, average value per plant ([1]; total 0.035 μg by 75 days): 13 ab; # Fruiting shoots, average value per plant ([1]; total 0.035 μg by 75 days): 12.40 bc; # Leaves, average value per plant ([1]; total 0.035 μg by 75 days): 99 abc; # Veg. shoots, average value per plant ([1]; total 0.035 μg by 75 days): 30.20 c; Fruit diameter ([1]; total 0.035 μg by 75 days): 21.81 b mm; Main Shoot (mm), average value per plant ([1]; total 0.035 μg by 75 days): 73.75 mm; Tap Root (mm), average value per plant ([1]; total 0.035 μg by 75 days): 25.50 mm
O=C(O)c1cc(I)cc(I)c1I [TIBA, 2,3,5-triiodobenzoic acid]								11 ab shoots per 100 nodes	8 shoots per 100 nodes	1 b shoots per 100 nodes	8 shoots per 100 nodes	9 b shoots per 100 nodes	

From patent US10321684B2, “Use of 9-beta-D-adenosine to increase crop production” (The Regents of the University of California, priority 2009, dated 2019)
